Earlier results as cited in patent publication US6599527B1, “Preparation of pharmaceutical compositions” (Phares Pharmaceutical Research N.V., priority 1997, dated 2003).

Conditions: in vivo

fraction entering the GI tract that is absorbed: Over 90%
Substance: phosphatidylcholine [phosphatidylcholine (PC)]
